Results: patent US7556825B2, “Method for promoting hair growth” (Anticancer, Inc., priority 1993, dated 2009)
Each block holds one molecule with its values, some of them ahead of it.

Columns and labels:
[1] = test system: Fischer or Sprague-Dawley rats; conditions: cited from earlier work; for alopecia in young rats after treatment: starting from the head, around one to two weeks after treatment
patients = conditions: cited from earlier work
hair follicles [2] = experiment: Liposome-mediated delivery of melanin to hair follicles in white-haired mouse skin histoculture; format: cell-based
Experimental: To that end, liposomes were prepared by sonication. About 20 mg of egg phosphatidycholine was rotary evaporated with a vacuum drier from a chloroform solution to form a thin film on the walls of a 5 ml round-bottomed flask for about 1 hour. The dried thin film phospholipid was suspended in about 0.5 ml phosphate buffered saline (pH 7.4) on a vortex mixer and then sonicated with a Branson probe-type sonicator fitted with a microtip at power level 3 for about 8 minutes. Then 0.5 ml of a solution of melanin (10 mg/ml) was entrapped with the above suspension by sonication for about an additional 4 minutes. Liposomes were separated from the non-entrapped melanin by gel-filtration on a Sepharose 4B column equilibrated with phosphate buffered saline.
Pieces of outbred white-haired mouse skin derived from 1-2 weeks-old animals (about 2×5×2 mm each) were harvested under a dissection microscope. […] Liposome interaction with the skin was initiated after about 24 hours of histoculture. Mouse skin histocultures were incubated for about 12 hours with liposomes. […]
The skin histocultures were counter-stained with the dye 2′,7′-bis(2-carboxyethyl)-5 which is activated to fluorescence by nonspecific esterases present only in living cells. After the tissues were thoroughly washed, the specimens were analyzed with a Nikon fluorescence microscope equipped with a fluorescein cube. […]

hair follicles [3] = experiment: In vivo topical liposome-melanin coloring of regrowing hair in depilated white-haired mice; parameters: species or system mouse
Text: 3-4 week old white-haired mice were depilated by a mixture of bees wax and rosin gum. Topical application of liposome-melanin as described herein was started on day 6 after depilation. […] The skin surface was then washed with an excess of water and wipe-dried with a gauze pad. The out-growing hair was micro-photographed. The same concentration of naked melanin solution as entrapped into liposomes was used as the control. In another experiment, 3-4 week old white-haired mice were depilated by a mixture of bees wax and rosin gum. Topical application of liposome-melanin composition was started on day 10 after depilation. The melanin used in this experiment was from Biosource, SF, CA #MM-8A-1. The liposome-melanin composition was applied on the skin of mice twice per day for 3 days. The treated skin surface was then washed with an excess of water and wipe-dried with a gauze pad. The mice were then photographed. The same concentration of naked melanin solution as entrapped into liposomes was used as the control.

hair follicles [4] = conditions: mouse, in vivo
Experimental: Liposomes were prepared essentially as described in Example 1. […] Thereafter, 0.5 ml of either calcein (10 mg/ml) or melanin (10 mg/ml) solution, respectively, were added to sonicated PC liposome composition, and further sonicated for 6 minutes, followed by freeze-thawing three times. […] A sample of about 250 microliters of the liposome composition entrapping calcein or melanin was applied directly to the dorsal skin on the mouse in an area of approximately 1.5 cm^2 using a sutured band-aid patch to immobilize the liposome composition onto the skin and to prevent evaporation. The liposome composition was re-applied every 1 hour for 6 hours, with the last application remaining for a total of 24 hours at which time the skin samples were taken by punch biopsy for analysis. For time course experiments, one mouse was used for each time period, with 6 punch biopsies taken from each mouse, at 0.5, 1, 2, 4, 6, 16 and 24 hours. […] Skin samples containing calcein were also analyzed by spectrofluorimetry to determine the effective concentration of a delivered beneficial compound into a selected tissue. […] The sonicated sample was then centrifuged for 10 minutes in a microcentrifuge at 14,000×g, and the resulting supernatant was measured by spectrofluorimetry at an excitation wavelength of 496 nm and an emission wavelength of 517 nm for detecting calcein. The concentration of calcein delivered into the skin tissue was determined from the spectrofluorometric readings by comparison to a standard curve. Skin samples containing melanin were also analyzed by is spectrophotometry to determine the effective concentration of a delivered beneficial compound into a selected tissue. […] The sonicated sample was then centrifuged for 10 minutes in a microcentrifuge at 14,000×g, and the resulting supernatant was measured by spectrophotometry at an absorption wavelength of 300 nm for detecting absorption by melanin. The concentration of melanin delivered into the skin tissue was determined from the spectrophotometric readings by comparison to a standard curve.

Sprague-Dawley rats = conditions: ip chemotherapy
Experimental: 8-day old Sprague-Dawley rats are treated topically with liposome compositions as described in Example 1 containing a compound such as p21 to be screened for its effect on chemotherapy-induced alopecia. The liposome composition is provided at a concentration of 100 μg/ml in 1 mM β-mercaptoethanol, for 2 days. […] The rats are then treated with cyclophosphamide, CTX (35 mg/kg, ip once) with the combination of CTX (25 mg/kg)+doxorubicin, DOX (2.5 mg/kg), ip once per day for 3 days, respectively. One rat pup without chemotherapy was used as control.

hair follicles [5] = experiment: Liposome-mediated delivery of calcein dye to hair follicles in mouse skin histoculture; format: cell-based
Experimental: For the histoculture of skin, pieces of shaved outbred white-haired-mouse or nude-mouse skin, approximately 2×5×2 mm, were harvested under a dissection microscope and then histocultured on collagen-gel supported sponge as described by Li et al., Proc. Natl. Acad. Sci. USA 88:1908-1912, 1991. Histoculture was continued for about 24 hours prior to contacting the skin histoculture with the liposome preparation.
Liposomes were prepared by sonication of about 15 mg or 25 mg, preferably 25 mg, phosphatidylcholine (PC) emulsion in phosphate buffered saline (PBS) containing about 20 mg/ml of the fluorescent dye calcein. Liposomes were also prepared by entrapping NBD-phosphatidylcholine fluorescent dye using an emulsion with about 20 mg/ml of the NBD formulation. Liposomes were separated from the non-entrapped dye by gel-filtration on a Sepharose 4B column diluted with phosphate buffered saline. The amount of entrapped dye was measured spectrofluorometrically. Two types of PC were used: egg PC (EPC) and dipalmitoyl PC (DPPC). Due to their phase transition temperatures, liposomes made of DPPC are in a gel phase at about 37° C. while liposomes prepared from EPC are in a liquid-crystalline state.
Samples of the mouse skin histocultures were incubated for about 20 minutes with each of the liposomes and with a solution of “free” calcein dye at the same concentrations used in the liposome preparation. After the tissue samples were thoroughly washed with culture medium free of liposomes to remove excess liposome composition, the specimens were analyzed with a BioRad MRC 600 laser confocal microscope with a BHS filter block, which excites the tissue at 488 nm and passes the light emitted at 520 nm. These parameters are close to the excitation and emission maxima reported for calcein, Haugland, (Ed.) Molecular probes. Handbook of Fluorescent Probes and Research Chemicals, Molecular Probes, Inc., Eugene, (1989-1991 and 1992-1993). There is no autofluorescence of tissue when these emission and excitation wavelengths are used. […]

Molecule: Nc1ccn([C@@H]2O[C@H](CO)[C@@H](O)[C@@H]2O)c(=O)n1 [ara-C]
alopecia in young rats after treatment [1]: develop alopecia

Molecule: COc1cccc2c1C(=O)c1c(O)c3c(c(O)c1C2=O)C[C@@](O)(C(=O)CO)C[C@@H]3O[C@H]1C[C@H](N)[C@H](O)[C@H](C)O1 [doxorubicin]
hair loss in patients (patients; human, in vivo): 85-100%
alopecia in young rats after treatment [1]: develop alopecia

Molecule: C=C1/C(=C\C=C2/CCC[C@]3(C)[C@@H]([C@H](C)CCCC(C)(C)O)CC[C@@H]23)C[C@@H](O)C[C@@H]1O [1,25-dihydroxyvitamin D3]
prevention of alopecia induced by cytoxan or etoposide ([1]; topical): prevents alopecia induced by cytoxan or etoposide

melanin delivered to the hair follicles (hair follicles [4]): less than 2.0 ug/mm^2
Molecule: melanin [naked melanin]
localization of melanin in hair follicles and hair shafts (H&E paraffin section) (hair follicles [2]): no “free” melanin can be observed either in hair shafts or the hair follicular cells
coloring of out-growing hair (hair follicles [3]; topical once per day for 4 days from day 6 after depilation): No hair coloring is observed
coloring of regrown hair (hair follicles [3]; topical twice per day for 3 days from day 10 after depilation): regrown hair remained white

Molecule: O=P1(N(CCCl)CCCl)NCCCO1 (centres unmarked) [CTX, cyclophosphamide]
other toxic effects in rat pups (Sprague-Dawley rats): No other toxic effects were noted
alopecia in rat pups (Sprague-Dawley rats; noted at day-7): alopecia can be seen
patients with severe alopecia (patients; intravenous): 75-90%
alopecia in young rats after treatment [1]: develop alopecia

calcein delivered in the hair follicles (hair follicles [4]; outbred white-haired, 24 h): about 1.4 ng/mm^2
Molecule: O=C(O)CN(CC(=O)O)Cc1cc2c(cc1O)Oc1cc(O)c(CN(CC(=O)O)CC(=O)O)cc1C21OC(=O)c2ccccc21 [free calcein, calcein]
delivery of calcein into hair follicles by topical use (hair follicles [5]; histoculture topically treated 48 hours): rarely penetrated through the skin to stain the hair follicles
delivery of green fluorescent dye to hair follicles and shafts (hair follicles [5]; histoculture treated 48 hours, propidium iodide counterstain): very weak staining of a few hair follicles
delivery of fluorescent dye to hair follicles (confocal fluorescence microscopy) (hair follicles [5]; skin histoculture incubated about 20 minutes): relatively low fluorescence with no preferential staining of any particular skin structure
delivery of calcein into hair follicles and shafts (fluorescent microscopy) (hair follicles [4]): trapped in the stratum corneum and did not enter the hair shafts or follicles
